Results taken from patent US12489120B2, “Redox flow battery” (ELECTROCHEM, S.L., priority 2019, dated 2025).
Read-outs that look alike come from different tables or passages of the source.

How the values were obtained:
[1] = Molar absorptivity at 480 nm in borate buffer pH 9; assay type: physicochemical; settings: borate buffer pH 9, five repetitions; in M-1·cm-1 (unit assumed)
Experimental: The molar absorptivity was determined in borate buffer solutions at pH 9 (five repetitions). To define the exact complex concentration an understoichiometric amount of ferric iron was used and the excess of free ligand was tolerated, as the ligand is not electroactive.

[2] = Diffusion coefficients of ferric complexes from voltammetry; assay type: physicochemical; settings: pH 9, borate buffer, this work
Experimental: The experiments also permit calculation of the diffusion coefficients (five solutions in the concentration range between 0.3 and 0.8 mM) (Table 3). Literature values for the Fe^3+ diffusion coefficient range from 3.3-6.5×10^−6 cm^2/s in acidic media to 8.6×10^−6 cm^2/s complexed as K3Fe(CN)6 in strongly basic media.

[3] = literature (Yunta et al. 2003); in M-1·cm-1 (unit assumed); cited from earlier work
[4] = Cyclic voltammetry in borate buffer at Hg/Cu/GC electrodes; settings: for E1/2 / ipa/ipc / jpc (peak current density) / ΔEp: 0.5 mM, 50 mM borate buffer pH 9, 0.1M NaClO4
Experimental: (§1) A Pt rod served as counter electrode, potentials refer to a (Ag/AgCl, 1 M NaCl) reference electrode. For each CV experiment at the mercury electrode, nine single measurements were recorded and averaged in order to minimize errors originating from drop size fluctuations. Copper electrodes were precleaned with 6 M HNO3 before use and equilibrated in electrolyte solution by running repetitive cycles. The planar glassy carbon electrode (Metrohm, 5 mm diameter) was polished on a polishing micro cloth (Buehler) with 0.05 μM alumina (Buehler) to a mirror like finish between the measurement series.
To avoid disturbing influences of local changes in pH within the diffusion layer of the electrodes, cyclic voltammetry with use of buffered solutions was performed.
A 100 mM NaClO4 background supporting electrolyte was used to maintain diffusion limited conditions and high solution conductivity. 50 mM boric acid was added to the NaClO4 supporting electrolyte and adjusted with NaOH to the desired pH value.

[5] = Cyclic voltammetry of Fe-EDDHA complexes in unbuffered 0.1 M NaClO4
Experimental: In order to minimize undesired ligand exchange reactions and solely observe the effect of pH on the redox properties, 0.1 M NaClO4 was chosen as electrolyte for the first set of experiments.
as §1

[6] = cited from earlier work
[7] = 0.5 mM, unbuffered 0.1M NaClO4, pH 9, Hg electrode
[8] = 0.5 mM, unbuffered 0.1M NaClO4, pH 9, Hg electrode, vs Ag/AgCl 1 M NaCl

O=C([O-])C(NCCNC(C(=O)[O-])c1ccccc1[O-])c1ccccc1[O-].[Fe+3] (stereo not shown) [Fe-mesoEDDHA]
Molar absorptivity (ε480 nm), this work [1]: 4546 ± 120 | Diffusion coefficient Do [2]: 5.78 10^−6 cm^2/s | Molar absorptivity (ε480 nm), lit. [3]: 4574 ± 53 | E1/2 ([4]; Cu electrode): −619 mV | ipa/ipc ([4]; Cu electrode): 1.06 | jpc (peak current density) ([4]; Cu electrode): 520 nA/mm^2 | ΔEp ([4]; Cu electrode): 132 mV | E1/2 ([4]; GC electrode): −616 mV | ipa/ipc ([4]; GC electrode): 0.94 1 | jpc (peak current density) ([4]; GC electrode): 817 nA/mm^2 | ΔEp ([4]; GC electrode): 67 mV | E1/2 ([4]; Hg electrode): −615 mV | ipa/ipc ([4]; Hg electrode): 0.93 1 | jpc (peak current density) ([4]; Hg electrode): 1167 nA/mm^2 | ΔEp ([4]; Hg electrode): 64 mV | slope of E1/2 vs pH ([4]; borate buffered solution, below pH 8 (racemic) / below pH 9 (meso)): −38 mV/pH | redox potential ([4]; pH 9, vs Ag/AgCl 1 M NaCl reference electrode): −615 mV | ipa [5, 7]: 255 nA | ipa/ipc [5, 7]: 0.93 | ipc [5, 7]: −275 nA | ΔEP [5, 7]: 72 mV | E1/2 [5, 8]: −621 mV | Epa [5, 8]: −585 mV | Epc [5, 8]: −657 mV | pH range in which the voltammograms were independent on pH ([5]; unbuffered 0.1 M NaClO4): 6-9 | pH above which the complex hydrolyses ([5]; without buffer): > 9

[Fe+3] [Fe^3+]
Diffusion coefficient, literature values ([6]; acidic media): 3.3-6.5 ×10^−6 cm^2/s | Diffusion coefficient Do ([6]; pH 0-1, source a (literature)): 3.3-6.5 10^−6 cm^2/s
